Structures can show the parent of a compound that is named as a salt. Where two headings read alike, the source gives them in different places.
What was measured:
[1] = test system: middle-aged (14-15 months old) C57B16 mouse; assay: contextual serial discrimination test (model of episodic memory); type: in vivo; conditions: chronic treatment for 9 days; for power of contextual memory (correct responses−interfering responses): carrier −28%
Excerpt: The effects of 4-{3-[cis-hexahydrocyclopenta[c]pyrrol-2(1H)-yl]propoxy}benzamide and donepezil (both in the form of a hydrochloride), administered on their own or in combination, were studied using a contextual serial discrimination test in the middle-aged (14-15 months old) C57B16 mouse (n=12 per group) (Célérier et al., Learn Mem., 2004, 11(2), 196-204; Tronche et al., Behav. Brain Res., 2010, 215(2): 255-60). […] This model is relevant for evaluating the effects of products in Alzheimer's disease because patients suffering from that form of dementia also have disturbances of contextual episodic memory, this being the case from a very early stage (Gold and Budson, Expert Rev Neurother., 2008, 8(12): 1879-1891).
The mice, placed in a box with raised edges, learn two types of consecutive spatial discrimination (D1: white floor, then D2: black floor) on a floor with four holes, in which just one of the holes is baited, the arrangement being opposite in D1 and in D2 (see FIG. 1). Each discrimination is performed on a specific floor (black or white), which constitutes the internal context specific to each discrimination. 24 hours after the learning step, the mice are returned to the white contextual floor, and the following are measured: • the percentage of correct responses (i.e. % of lowering the head into the hole that was baited during the learning exercise on the white floor), • the percentage of interfering responses (i.e. % of lowering the head into the hole that was baited during the learning exercise on the black floor, the last context presented to the mice), • and the percentage of errors (i.e. % of lowering the head into the two holes that were not baited during learning, whether on the white floor or on the black floor (see FIG. 1).
The effects of 4-{3-[cis-hexahydrocyclopenta[c]pyrrol-2(1H)-yl]propoxy}benzamide and rivastigmine (used in the form of a hydrogen tartrate), administered on their own or in combination, were studied using the contextual serial discrimination test in the middle-aged C57B16 mouse described in the Example above.
The effects of 4-{3-[cis-hexahydrocyclopenta[c]pyrrol-2(1H)-yl]propoxy}benzamide and galantamine (used in the form of a hydrobromide), administered on their own or in combination, were also studied using the contextual serial discrimination test in the middle-aged C57B16 mouse.

[2] = test system: C57B16 mouse; conditions: administered on its own
Method: The effects, in terms of safety, of 4-{3-[cis-hexahydrocyclopenta[c]pyrrol-2(1H)-yl]propoxy}-benzamide and donepezil (both in the form of a hydrochloride), administered on their own or in association, were studied using Irwin's primary observation test in the C57B16 mouse (n=4 individuals per group).
Behavioural changes, physiological and neurotoxic symptoms, rectal temperature and pupil diameter were recorded using a standardised observation grid derived from that of Irwin.

CCN(C)C(=O)Oc1cccc([C@H](C)N(C)C)c1 [rivastigmine, reference compound]
power of contextual memory (correct responses−interfering responses) ([1]; Example B, FIG. 4, rivastigmine 0.1 mg/kg of base per os): −9%

NC(=O)c1ccc(OCCCN2C[C@H]3CCC[C@H]3C2)cc1 [4-{3-[cis-hexahydrocyclopenta[c]pyrrol-2(1H)-yl]propoxy}benzamide]
increase in the level of correct responses compared to the carrier ([1]; Example A, FIG. 2, 0.3 mg/kg of base per os): more than 60%
increase in the level of correct responses compared to the carrier ([1]; Example A, FIG. 2, 1 mg/kg of base per os): more than 60%
power of contextual memory (correct responses−interfering responses) ([1]; Example B, FIG. 4, 0.3 mg/kg of base per os): +6%
power of contextual memory (correct responses−interfering responses) ([1]; Example B, FIG. 4, 1 mg/kg of base per os): +10%
power of contextual memory (correct responses−interfering responses) ([1]; Example C, FIG. 5, 0.3 mg/kg of base per os): −3%
power of contextual memory (correct responses−interfering responses) ([1]; Example C, FIG. 5, 1 mg/kg of base per os): +9%
observable changes in Irwin's test ([2]; 0.3 and 1 mg/kg of base per os): no observable changes

COc1ccc2c3c1O[C@H]1C[C@@H](O)C=C[C@@]31CCN(C)C2 [galantamine, reference compound]
power of contextual memory (correct responses−interfering responses) ([1]; Example C, FIG. 5, galantamine 0.3 mg/kg of base per os): −18%

COc1cc2c(cc1OC)C(=O)C(CC1CCN(Cc3ccccc3)CC1)C2 (stereo not drawn) [donepezil hydrochloride, donepezil]
percentage of correct responses compared to the carrier ([1]; Example A, FIG. 2, donepezil hydrochloride 0.1 mg/kg of base per os, tested 24 hours after learning): no significant improvement
observable changes in Irwin's test ([2]; donepezil 1 mg/kg of base per os (strongest dose)): reduces reactivity to touch and causes slight sedation
observable changes in Irwin's test ([2]; donepezil 0.1 and 0.3 mg/kg of base per os): no observable changes

Reference: patent US8940785B2, “Association between 4-{3-[cis-hexahydrocyclopenta[c]pyrrol-2(1H)-yl]propoxy}benzamide and an acetylcholinesterase inhibitor, and pharmaceutical compositions containing it” (priority 2011, dated 2015)
